Measurements as given in patent US9101635B2 (priority 2009, dated 2015).
Like-named read-outs stand apart in the source and are kept apart here.

Tests used:
[1] = test system: recombinant Zaire EBOV expressing green fluorescent protein (GFP-ZEBOV); assay: microbe, parasite or virus in culture; assay type: cell-based, EBOV (Zaire subtype, 1995 strain)
in vitro [2] = conditions: African green monkey
[3] = test system: HIV/VSV-G pseudotype virus; assay: microbe, parasite or virus in culture; assay type: cell-based, vesicular stomatitis virus; conditions: for inhibition at 25 µM: Human immunodeficiency virus 1, HEK-293T, read-out: Inhibition of pseudotype virus at 25 μM in 293T cells (%) HIV/VSV-GP
in vitro [4] = conditions: human
[5] = test system: HIV/EBOV-GP pseudotype virus; assay: microbe, parasite or virus in culture; assay type: cell-based, EBOV Zaire strain; conditions: for inhibition at 25 µM: read-out: Inhibition of pseudotype virus at 25 μM in 293T cells (%) HIV/EBOV-GP
Vero E6 cells = conditions: African green monkey
[6] = test system: HIV/EBOV-GP pseudotype virus; assay: microbe, parasite or virus in culture; assay type: cell-based, EBOV Zaire strain; conditions: Human immunodeficiency virus 1, HEK-293T
EboZ replication = conditions: read-out: IC50, EboZ replication in vitro; cited from earlier work
[7] = test system: HIV/EBOV-GP pseudotype virus; assay type: cell-based, EBOV Zaire strain
[8] = test system: HIV/VSV-G pseudotype virus; assay type: cell-based, vesicular stomatitis virus
[9] = test system: HIV/MARV-GP pseudotype virus; assay: microbe, parasite or virus in culture; assay type: cell-based, MARV (Lake Victoria strain)
[10] = test system: HIV/HA(H5) pseudotype virus; assay: microbe, parasite or virus in culture; assay type: cell-based, influenza virus subtype H5
[11] = test system: HIV/LASV-GP pseudotype virus; assay: microbe, parasite or virus in culture; assay type: cell-based, Lassa virus (LASV)
[12] = test system: HIV/EBOV-GP pseudotype virus; assay type: cell-based, EBOV Zaire strain; remark: listed apart in the source
VSV-G = VSV-G (Vesicular stomatitis Indiana virus, UniProt P03522); assay type: cell-based; conditions: pH 5
EBOV Δmucin GP = assay type: cell-based; conditions: pH 5
[13] = Zaire ebolavirus, Vero C1008, 48 h, read-out: GFP-ZEBOV IC50 (μM)
[14] = Zaire ebolavirus, Vero C1008, 48 h, read-out: GFP-ZEBOV IC90 (μM)
[15] = Human immunodeficiency virus 1, HEK-293T, read-out: HIV/EBOV-Gp IC90 (μM)
[16] = Human immunodeficiency virus 1, HEK-293T, read-out: IC90 (μM) against HIV/EBOV-GP
[17] = Human immunodeficiency virus 1, HEK-293T
[18] = read-out: inhibition of HIV/EBOV-GP infection, Assay 3: compounds pre-incubated with the virus for 1 hour at 37° C.
[19] = read-out: inhibition of infection, Assay 4: compounds pre-incubated with 293T cells at 4° C. before virus
[20] = Zaire ebolavirus, Vero C1008, read-out: Infectious EBOV IC50 (μM)
[21] = Human immunodeficiency virus 1, read-out: HIV/MARV-GP IC90 (μM)
[22] = Human immunodeficiency virus 1, read-out: HIV/HA (H5) IC90 (μM)
[23] = Human immunodeficiency virus 1, read-out: HIV/LASV-GP IC90 (μM)
[24] = Human immunodeficiency virus 1, HEK-293T, read-out: HIV/EBOV-GP IC90 (μM)

Sequence of VSV-G (P03522 17-511 limits assumed): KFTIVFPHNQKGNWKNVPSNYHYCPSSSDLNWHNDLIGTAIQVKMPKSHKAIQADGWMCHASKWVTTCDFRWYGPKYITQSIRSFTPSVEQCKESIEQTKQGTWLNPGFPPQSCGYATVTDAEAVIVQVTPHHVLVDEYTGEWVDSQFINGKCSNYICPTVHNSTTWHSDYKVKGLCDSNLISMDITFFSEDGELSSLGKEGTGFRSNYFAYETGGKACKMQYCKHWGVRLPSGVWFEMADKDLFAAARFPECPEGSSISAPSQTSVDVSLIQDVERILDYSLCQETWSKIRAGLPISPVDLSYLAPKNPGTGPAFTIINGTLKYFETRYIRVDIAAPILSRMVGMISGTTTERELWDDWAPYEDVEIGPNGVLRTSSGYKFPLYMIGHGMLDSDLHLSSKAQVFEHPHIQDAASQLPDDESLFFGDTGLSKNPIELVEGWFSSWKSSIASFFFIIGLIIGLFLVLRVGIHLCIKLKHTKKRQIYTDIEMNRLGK

Molecule: CCCN(C)c1c([N+](=O)[O-])cc([N+](=O)[O-])c2cccnc12 [A, 5,7-dinitro-8-[methyl(propyl)amino]quinoline]
- IC50 [1, 13]: 7.5 µM
- IC90 [1, 14]: 10 µM
- CC50 (in vitro [2]; GFP-ZEBOV CC50 (μM)): 15 µM
- inhibition at 25 µM [3]: 25%
- CC50 (in vitro [4]): 30 µM
- IC90 [5, 15]: 18.4 µM
- IC90 [5, 16]: 18.4 µM
- inhibition at 25 µM [5, 17]: 98%

Molecule: COc1cccc(C(CC(=O)c2ccc(Cl)cc2)C(C#N)C#N)c1 (centres unmarked) [B]
- IC50 [1, 13]: 10 µM
- IC90 [1, 14]: 20 µM
- CC50 (in vitro [2]; GFP-ZEBOV CC50 (μM)): > 50 µM
- CC50 (Vero E6 cells): 51.5 µM
- inhibition at 25 µM [3]: 10%
- CC50 (in vitro [4]): 25 µM
- IC90 [5, 15]: 7.6 µM
- IC90 [5, 16]: 7.6 µM
- inhibition at 25 µM [5, 17]: 100%
- inhibition at 10 µM [6, 18]: > 75%

Molecule: Nc1nccc2c1ncn2[C@@H]1C[C@H](CO)[C@@H](O)[C@H]1O [C-c3Ado, carbocyclic adenosine analog 3-deazaadenosinc]
- IC50 (EboZ replication): 30 µM

Molecule: CCCNC(=O)[C@H]1O[C@@H]1C(=O)N[C@H](C(=O)N1CCC[C@H]1C(=O)O)[C@@H](C)CC [CA-074]
- inhibition of HIV/EBOV-GP infection [7]: strongly inhibited
- inhibition of HIV/VSV-G infectivity [8]: not

Molecule: CC[C@@]1(O)C(=O)OCc2c1cc1n(c2=O)Cc2cc3ccccc3nc2-1 [C]
- IC50 [1, 13]: 10 µM
- IC90 [1, 14]: 23.5 µM
- CC50 (in vitro [2]; GFP-ZEBOV CC50 (μM)): 29.5 µM
- inhibition at 25 µM [3]: 0%
- CC50 (in vitro [4]): 20 µM
- IC90 [5, 15]: 0.8 µM
- IC90 [5, 16]: 0.8 µM
- inhibition at 25 µM [5, 17]: 98%
- inhibition at 10 µM [6, 18]: > 75%

Molecule: CC1=CC(c2ccccc2)=Nc2cc3ccccc3cc2N1 [Compound G1]
- IC50 [5, 17]: 88.3 µM

Molecule: Cc1cc2c(cc1C)N=C(C(F)(F)F)CC(c1ccc(Cl)cc1)=N2 [Compound G2]
- IC50 [5, 17]: 72.1 µM

Molecule: FC(F)(F)C(F)(F)C1=Nc2ccccc2N=C(c2ccccc2)C1 [Compound G3]
- IC50 [5, 17]: 70.9 µM

Molecule: FC(F)(F)C(F)(F)C1=Nc2cc(Cl)c(Cl)cc2N=C(c2ccccc2)C1 [Compound G4]
- IC50 [5, 17]: 3.7 µM

Molecule: Oc1ccccc1C1=Nc2ccccc2N=C(C(F)(F)F)C1 [Compound G5]
- IC50 [5, 17]: 70.7 µM

Molecule: Cc1ccc(C2=Nc3ccccc3N=C(C(F)(F)F)C2)cc1 [Compound G6]
- IC50 [5, 17]: 75.7 µM

Molecule: COc1ccc(O)c(C2=Nc3ccccc3N=C(C(F)(F)F)C2)c1 [Compound G7]
- IC50 [5, 17]: 85.7 µM

Molecule: Oc1ccccc1C1=Nc2ccccc2N=C(c2cccs2)C1 [Compound G8]
- IC50 [5, 17]: > 100 µM

Molecule: Oc1ccc(Cl)cc1C1=Nc2ccccc2N=C(c2ccco2)C1 [Compound G9]
- IC50 [5, 17]: > 100 µM

Molecule: COc1ccc(O)c(C2=Nc3ccccc3N=C(c3cccs3)C2)c1 [Compound G10]
- IC50 [5, 17]: > 100 µM

Molecule: Oc1ccccc1C1=Nc2ccccc2N=C(c2ccco2)C1 [Compound G11]
- IC50 [5, 17]: > 100 µM

Molecule: O=[N+]([O-])c1cccc(C2=Nc3ccccc3N=C(c3ccccc3O)C2)c1 [Compound G12]
- IC50 [5, 17]: > 100 µM

Molecule: FC(F)C(F)(F)C1=Nc2ccccc2N=C(c2ccccc2)C1 [Compound G]
- GFP-ZEBOV percentage in parentheses beside IC90 >25 [1]: >25 (70%)
- IC50 ([1]; read-out: GFP-ZEBOV IC50): 10 µM
- IC90 ([1]; read-out: GFP-ZEBOV IC90): > 25 µM
- IC50 ([1]; read-out: Infectious EBOV IC50): 10 µM
- CC50 (293T cells): 75 µM
- IC90 ([9]; read-out: HIV/MARV-GP IC90): 10 µM
- IC90 ([10]; read-out: HIV/HA (H5) IC90): > 50 µM
- Inhibition of pseudotype virus at 25 μM in 293T cells (%) HIV/VSV-GP ([3]; 25 μM): 20%
- IC90 ([11]; read-out: HIV/LASV-GP IC90): > 50 µM
- Inhibition of pseudotype virus at 25 μM in 293T cells (%) HIV/EBOV-GP ([5]; 25 μM): 96%
- IC90 ([5]; read-out: HIV/EBOV-GP IC90): 12.1 µM
- IC90 ([5]; read-out: HIV/EBOV-Gp IC90): 12.1 µM
- IC50 ([5]; read-out: IC50): 12.1 µM
- IC90 ([5]; read-out: IC90 (μM) against HIV/EBOV-GP): 20.1 µM
- inhibition, added at time 0 at 0° C. ("binding") [12]: > 75%

Molecule: O=c1c2ccccc2nc(/C=C/c2ccc([N+](=O)[O-])o2)n1-c1cccc(C(F)(F)F)c1 [D]
- GFP-ZEBOV percentage in parentheses beside IC90 >25 [1]: >25 (85%)
- IC50 [1, 13]: 15.5 µM
- IC90 [1, 14]: > 25 µM
- CC50 (in vitro [2]; GFP-ZEBOV CC50 (μM)): > 50 µM
- CC50 (Vero E6 cells): 62.5 µM
- inhibition at 25 µM [3]: 15%
- CC50 (in vitro [4]): 30 µM
- IC90 [5, 15]: 1.1 µM
- IC90 [5, 16]: 1.1 µM
- inhibition at 25 µM [5, 17]: 100%
- inhibition at 10 µM [6, 19]: > 75%

Molecule: O=C(Nc1ccc(Cl)c(Cl)c1)c1ccc([N+](=O)[O-])o1 [E]
- IC50 [1, 13]: 14.5 µM
- IC90 [1, 14]: 20 µM
- CC50 (in vitro [2]; GFP-ZEBOV CC50 (μM)): 40 µM
- inhibition at 25 µM [3]: 25%
- CC50 (in vitro [4]): 54 µM
- IC90 [5, 15]: 20.8 µM
- IC90 [5, 16]: 20.8 µM
- inhibition at 25 µM [5, 17]: 98%

Molecule: N=c1c2c(-c3ccccc3)c(-c3ccccc3)n(Cc3ccco3)c2ncn1CCCn1ccnc1 [F]
- GFP-ZEBOV percentage in parentheses beside IC90 >25 [1]: >25 (78%)
- IC50 [1, 13]: 15 µM
- IC90 [1, 14]: > 25 µM
- CC50 (in vitro [2]; GFP-ZEBOV CC50 (μM)): 48.5 µM
- inhibition at 25 µM [3]: 20%
- CC50 (in vitro [4]): 25 µM
- IC90 [5, 15]: 10.9 µM
- IC90 [5, 16]: 10.9 µM
- inhibition at 25 µM [5, 17]: 98%
- inhibition at 10 µM [6, 19]: > 75%

Molecule: Cc1ccc(N(c2ccc(C)cc2)c2cccnc2)cc1 [H]
- GFP-ZEBOV percentage in parentheses beside IC90 >25 [1]: >25 (59%)
- IC50 [1, 13]: 20 µM
- IC90 [1, 14]: > 25 µM
- CC50 (in vitro [2]; GFP-ZEBOV CC50 (μM)): 22.6 µM
- inhibition at 25 µM [3]: 30%
- CC50 (in vitro [4]): > 50 µM
- IC90 [5, 15]: 23.5 µM
- IC90 [5, 16]: 23.5 µM
- inhibition at 25 µM [5, 17]: 100%

Molecule: COc1ccc(OC)c(NC(=O)CC(c2ccc(OC)cc2OC)S(=O)(=O)c2ccccc2)c1 (centres unmarked) [I]
- IC50 [1, 20]: 4.6 µM
- CC50 (in vitro [2]; Infectious EBOV CC50 (μM)): 40 µM
- IC90 [9, 21]: 2.8 µM
- IC90 [10, 22]: > 50 µM
- IC90 [11, 23]: > 50 µM
- CC50 (in vitro [4]): 32 µM
- IC90 [5, 24]: 2.7 µM
- activity when added after virus infection (+1 h) ("fusion") [12]: active

Molecule: CCOc1ccc(NC(=O)CSc2nnc(COc3cccc(N(C)C)c3)n2-c2ccccc2)cc1 [K]
- IC50 [1, 20]: 2.5 µM
- cytotoxicity, second value column of Table 7 (head only in drawing) (293T cells; human): 98
- CC50 (in vitro [2]; Infectious EBOV CC50 (μM)): 50 µM
- IC90 [9, 21]: 11 µM
- IC90 [10, 22]: > 50 µM
- IC90 [11, 23]: > 50 µM
- CC50 (in vitro [4]): 98 µM
- selectivity index, third value column of Table 7 (head only in drawing) [5]: 39
- IC90 [5, 24]: 2 µM
- IC50 ([5]; Human immunodeficiency virus 1, HEK-293T, read-out: antiviral potency, first value column of Table 7 (head only in drawing)): 2.5 µM
- activity when added after virus infection (+1 h) ("fusion") [12]: active

Molecule: Bafilomycin
- inhibition of cell-cell fusion, VSV-G expressing cells (VSV-G): completely inhibited
- inhibition of cell-cell fusion, EBOV expressing cells (EBOV Δmucin GP): completely inhibited
